The values that follow come from US7884105B2, “Squaric acid derivatives as inhibitors of histone deacetylase” (Janssen Pharmaceutica, N.V., priority 2005, dated 2011).

As a reminder, the solubility is the dissolved amount per volume that the medium holds.

For the first series, the target named is histone deacetylase (HeLa nuclear extracts). Description: In vitro assay for inhibition of histone deacetylase (HDAC Fluorescent Activity Assay, Fluor de Lys). The conditions noted are these: HeLa nuclear extracts 60 μg/ml, 75 μM Fluor de Lys substrate, pH 7.4, 30 min. Further details: key: pIC50 = negative log of IC50. Format: biochemical. An excerpt:
The in vitro assay for inhibition of histone deacetylase (see example C.1) measures the inhibition of HDAC enzymatic activity obtained with the compounds of formula (I).
The HDAC Fluorescent Activity Assay/Drug Discovery Kit of Biomol (cat. No: AK-500-0001) was used. The HDAC Fluorescent Activity Assay is based on the Fluor de Lys (Fluorogenic Histone deAcetylase Lysyl) substrate and developer combination. The Fluor de Lys substrate, comprises an acetylated lysine side chain. Deacetylation of the substrate sensitizes the substrate so that, in the second step, treatment with the Fluor de Lys developer produces a fluorophore.
HeLa nuclear extracts (supplier: Biomol) were incubated at 60 μg/ml with 75 μM of substrate. The Fluor de Lys substrate was added in a buffer containing 25 mM Tris, 137 mM NaCl, 2.7 mM KCl and 1 mM MgCl2.6H2O at pH 7.4. After 30 min, 1 volume of the developer was added. The fluorophore was excited with 355 nm light and the emitted light (450 nm) was be detected on a fluorometric plate reader.
For each experiment, controls (containing HeLa nuclear extract and buffer), a blank incubation (containing buffer but no HeLa nuclear extract) and samples (containing compound dissolved in DMSO and further diluted in buffer and HeLa nuclear extract) were run in parallel. In first instance, compounds were tested at a concentration of 10^−5M. […] All sample were tested 4 times. In each test the blank value was subtracted from both the control and the sample values. The control sample represented 100% of substrate deactylation. For each sample the fluorescence was expressed as a percentage of the mean value of the controls. When appropriate IC50-values (concentration of the drug, needed to reduce the amount of metabolites to 50% of the control) were computed using probit analysis for graded data. Herein the effects of test compounds are expressed as pIC50 (the negative log value of the IC50-value) (see Table F-2).
As to `O=C(NO)c1cnc(N2CCN(c3c(NCc4ccco4)c(=O)c3=O)CC2)nc1` [Compound 7], the “Enzymatic activity pIC50 C.1.” value is recorded as 7.2.

As for `O=C(NO)c1cnc(N2CCN(c3c(NC4CCCc5ccccc54)c(=O)c3=O)CC2)nc1` (stereo not drawn) [Compound 4], the “Enzymatic activity pIC50 C.1.” value is on record as 7.2.

As to `CCN(CC)CCCNc1c(N2CCN(c3ncc(C(=O)NO)cn3)CC2)c(=O)c1=O` [Compound 6], the “Enzymatic activity pIC50 C.1.” value is 7.2.

As to `O=C(NO)c1cnc(N2CCN(c3c(NCCCN4CCCC4=O)c(=O)c3=O)CC2)nc1` [Compound 15], the “Enzymatic activity pIC50 C.1.” value is on record as 6.8.

On to `O=C(NO)c1cnc(N2CCN(c3c(NCc4cccc(C(F)(F)F)c4)c(=O)c3=O)CC2)nc1` [Compound 12], for which the “Enzymatic activity pIC50 C.1.” value turned out to be 7.2.

For the compound `O=C(NO)c1cnc(N2CCN(c3c(NCCNc4ccccc4)c(=O)c3=O)CC2)nc1` [Compound 14], the “Enzymatic activity pIC50 C.1.” value stood at 6.9.

Turning to `O=C(NO)c1cnc(N2CCN(c3c(NCCOc4ccccc4)c(=O)c3=O)CC2)nc1` [Compound 16], the “Enzymatic activity pIC50 C.1.” value amounted to 7.3.

`O=C(NO)c1cnc(N2CCN(c3c(NCC4CCN(Cc5ccccc5)C4)c(=O)c3=O)CC2)nc1` (stereo not drawn) [Compound 2]: the “Enzymatic activity pIC50 C.1.” value amounted to 6.9.

For the compound `COc1cc(CNc2c(N3CCN(c4ncc(C(=O)NO)cn4)CC3)c(=O)c2=O)cc(OC)c1OC` [Compound 13], the “Enzymatic activity pIC50 C.1.” value came out at 7.4.

For `O=C(NO)c1cnc(N2CCN(c3c(NCc4cccnc4)c(=O)c3=O)CC2)nc1` [Compound 9], the “Enzymatic activity pIC50 C.1.” value was 7.0.

As to `O=C(NO)c1cnc(N2CCN(c3c(NCC4(c5ccc(Cl)cc5)CC4)c(=O)c3=O)CC2)nc1` [Compound 8], the “Enzymatic activity pIC50 C.1.” value was 7.2.

On to `O=C(NO)c1cnc(N2CCN(c3c(NCCc4ccccn4)c(=O)c3=O)CC2)nc1` [Compound 11], for which the “Enzymatic activity pIC50 C.1.” value was 7.0.

For the compound `O=C(NO)c1cnc(N2CCN(c3c(NCCOc4cccc(Cl)c4)c(=O)c3=O)CC2)nc1` [Compound 5], the “Enzymatic activity pIC50 C.1.” value came out at 7.4.

Consider `O=C(NO)c1cnc(N2CCN(c3c(Nc4cccc(-c5ccccc5)c4)c(=O)c3=O)CC2)nc1` [Compound 1], for which the “Enzymatic activity pIC50 C.1.” value was found to be 7.7.

Consider `O=C(NO)c1cnc(N2CCN(c3c(NCCc4ccccc4)c(=O)c3=O)CC2)nc1` [Compound 10], for which the “Enzymatic activity pIC50 C.1.” value was 7.1.

For the compound `CCCCCNc1c(N2CCN(c3ncc(C(=O)NO)cn3)CC2)c(=O)c1=O` [Compound 3], the “Enzymatic activity pIC50 C.1.” value was found to be 7.6.

Test system in another series: not listed separately
Description: Kinetic solubility in aqueous media (nephelometry). In kind it is physicochemical. The conditions noted are these: aqueous buffer, kinetic from dmso stock; phosphate citrate buffer pH 7.4, dilution of 5 mM DMSO stock, turbidity by nephelometer; read-out: Solubility C.2. score. The protocol:
The solubility of a compound measures the ability of a compound to stay in solution. DMSO-stock solutions are diluted with a single aqueous buffer solvent in 3 consecutive steps. For every dilution turbidity is measured with a nephelometer. (see example C.2).
In the first dilution step, 10 μl of a concentrated stock-solution of the active compound, solubilized in DMSO (5 mM), was added to 100 μl phosphate citrate buffer pH 7.4 and mixed. In the second dilution step, an aliquot (20 μl) of the first dilution step was further dispensed in 100 μl phosphate citrate buffer pH 7.4 and mixed. Finally, in the third dilution step, a sample (20 μl) of the second dilution step was further diluted in 100 μl phosphate citrate buffer pH 7.4 and mixed. All dilutions were performed in 96-well plates. Immediately after the last dilution step the turbidity of the three consecutive dilution steps were measured with a nephelometer. Dilution was done in triplicate for each compound to exclude occasional errors. Based on the turbidity measurements a ranking is performed into 3 classes. Compounds with high solubility obtained a score of 3 and for this compounds the first dilution is clear. Compounds with medium solubility obtained a score of 2. For these compounds the first dilution is unclear and the second dilution is clear. […]
Turning to `O=C(NO)c1cnc(N2CCN(c3c(NCc4ccco4)c(=O)c3=O)CC2)nc1` [Compound 7], the solubility was greater than 454 µM.

For `O=C(NO)c1cnc(N2CCN(c3c(NCc4cccc(C(F)(F)F)c4)c(=O)c3=O)CC2)nc1` [Compound 12], the solubility is greater than 454 µM.
